According to patent US7423054B2, “Therapeutic pyrazolo[3,4-b]pyridines and indazoles” (Warner Lambert Company LLC, priority 2004, dated 2008):
Where a name gives a salt, the structure may show the parent alone.

Tests used:
[1] = molecular target: T1, human norepinephrine transporter (hNET) (Homo sapiens, UniProt P23975); experiment: hNET receptor binding ([125I]-RTI-55 displacement, membranes of transfected HEK-293 cells); conditions: HEK-293 membranes, Ki from IC50 by Cheng-Prusoff, read-out: NET Ki
T1 construct: expressed in transfected cells; host or cells: HEK-293 cells (membrane preparation)
Source text: (§1) The ability of the compounds of the present invention to inhibit a norepinephrine transporter and/or a serotonin transporter can be determined using conventional radioligand receptor transport assays. The receptors can be heterologously expressed in cell lines and experiments conducted in membrane preparations from the cell lines that express a norepinephrine transporter and/or a serotonin transporter.
(§2) Cell pastes of HEK-293 cells transfected with a human norepinephrine transporter cDNA were prepared. The cell pastes were resuspended in 400 to 700 ml of Krebs-HEPES assay buffer (25 mM HEPES, 122 mM NaCl, 3 mM KCl, 1.2 mM MgSO4, 1.3 mM CaCl2, and 11 mM glucose, pH 7.4) with a Polytron homogenizer at setting 7 for 30 seconds. Aliquots of membranes (5 mg/ml protein) were stored in liquid nitrogen until used.
The binding assay was set up in Beckman deep-well polypropylene plates with a total volume of 250 μl containing: test compound (10^−5M to 10^−12M), cell membranes, and 50 pM [^125I]-RTI-55 (Perkin Elmer, NEX-272; specific activity 2200 Ci/mmol). The reaction was incubated by gentle agitation for 90 minutes at room temperature and was terminated by filtration through Whatman GF/C filter plates using a Brandel 96-well plate harvester. Scintillation fluid (100 μl) was added to each well, and bound [^125I]-RTI-55 was determined using a Wallac Trilux Beta Plate Counter. Test compounds were run in duplicate, and specific binding was defined as the difference between binding in the presence and absence of 10 μM desipramine.
Excel and GraphPad Prism software were used for data calculation and analysis. IC50 values were converted to Ki values using the Cheng-Prusoff equation. The Ki values (nM) for the hNET are reported below in Table 11.

[2] = molecular target: T2, human serotonin transporter (hSERT) (Homo sapiens, UniProt P31645); experiment: hSERT receptor binding ([125I]-RTI-55 displacement, membranes of transfected HEK-293 cells); conditions: HEK-293 membranes, Ki from IC50 by Cheng-Prusoff, read-out: SERT Ki
T2 construct: expressed in transfected cells; host or cells: HEK-293 cells (membrane preparation)
Method: as §1
as §2, with “serotonin” for “norepinephrine”, “Setting” for “setting”, “(˜2.5” for “(5”
Assays were set up in FlashPlates pre-coated with 0.1% PEI in a total volume of 250 μl containing: test compound (10^−5M to 10^−12M), cell membranes, and 50 pM [^125I]-RTI-55 (Perkin Elmer, NEX-272; specific activity 2200 Ci/mmol). The reaction was incubated and gently agitated for 90 minutes at room temperature, and terminated by removal of assay volume. Plates were covered, and bound [^125I]-RTI-55 was determined using a Wallac Trilux Beta Plate Counter. Test compounds were run in duplicate, and specific binding was defined as the difference between binding in the presence and absence of 10 μM citalopram.
Excel and GraphPad Prism software were used for data calculation and analysis. IC50 values were converted to Ki values using the Cheng-Prusoff equation. The Ki values (nM) for the hSERT are reported below in Table 11: […]

T2 sequence (P31645 whole entry): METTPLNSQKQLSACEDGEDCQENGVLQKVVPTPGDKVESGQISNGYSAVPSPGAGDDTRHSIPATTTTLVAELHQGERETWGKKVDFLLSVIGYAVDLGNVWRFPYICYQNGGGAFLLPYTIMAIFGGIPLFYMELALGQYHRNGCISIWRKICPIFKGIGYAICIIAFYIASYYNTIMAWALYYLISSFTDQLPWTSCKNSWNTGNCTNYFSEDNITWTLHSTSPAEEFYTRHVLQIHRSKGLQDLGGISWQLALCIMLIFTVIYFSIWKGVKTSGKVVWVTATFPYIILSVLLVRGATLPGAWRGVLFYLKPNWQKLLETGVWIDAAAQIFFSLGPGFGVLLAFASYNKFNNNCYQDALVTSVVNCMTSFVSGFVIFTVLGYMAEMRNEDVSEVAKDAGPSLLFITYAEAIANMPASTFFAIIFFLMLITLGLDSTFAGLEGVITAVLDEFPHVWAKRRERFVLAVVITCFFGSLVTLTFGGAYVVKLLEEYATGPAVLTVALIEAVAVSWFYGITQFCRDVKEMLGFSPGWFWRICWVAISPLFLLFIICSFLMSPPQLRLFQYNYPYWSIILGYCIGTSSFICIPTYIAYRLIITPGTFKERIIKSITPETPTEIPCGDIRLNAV
T1 sequence (P23975 whole entry): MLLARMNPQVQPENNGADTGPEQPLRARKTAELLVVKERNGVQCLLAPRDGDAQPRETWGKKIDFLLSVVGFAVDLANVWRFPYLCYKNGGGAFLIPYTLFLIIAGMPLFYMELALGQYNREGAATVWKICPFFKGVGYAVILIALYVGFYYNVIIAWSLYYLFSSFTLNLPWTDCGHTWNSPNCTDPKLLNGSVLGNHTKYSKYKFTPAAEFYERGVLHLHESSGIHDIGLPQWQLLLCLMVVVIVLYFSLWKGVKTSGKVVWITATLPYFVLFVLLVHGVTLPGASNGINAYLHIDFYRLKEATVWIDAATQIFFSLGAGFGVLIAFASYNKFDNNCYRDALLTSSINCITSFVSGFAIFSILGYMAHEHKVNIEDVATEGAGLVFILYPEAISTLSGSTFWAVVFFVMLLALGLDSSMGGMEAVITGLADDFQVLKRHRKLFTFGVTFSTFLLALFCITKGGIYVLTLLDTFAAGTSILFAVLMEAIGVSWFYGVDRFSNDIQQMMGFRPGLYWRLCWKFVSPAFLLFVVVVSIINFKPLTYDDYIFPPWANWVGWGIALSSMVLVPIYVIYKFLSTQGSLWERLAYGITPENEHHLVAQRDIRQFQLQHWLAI

Row | SMILES | Ki [1] [nM] | Ki [2] [nM]
1 | Clc1ccc(-n2nc(OCC3CCCNC3)c3ccccc32)cc1 (racemic) [Example 68, (±)-1-(4-Chloro-phenyl)-3-(piperidin-3-ylmethoxy)-1H-indazole hydrochloride] | 219 | 359
2 | c1ccc(-n2nc(OCC3CCCNC3)c3ccccc32)cc1 (racemic) [Example 16, (±)-1-Phenyl-3-(piperidin-3-ylmethoxy)-1H-indazole hydrochloride] | 21.5 | 224
3 | Fc1cccc(F)c1-n1nc(OC[C@H]2CCNC2)c2ccccc21 [Example 37, (S)-1-(2,6-Difluoro-phenyl)-3-(pyrrolidin-3-ylmethoxy)-1H-indazole hydrochloride] | 6.05 | 105
4 | Fc1ccccc1-n1nc(OC[C@H]2CCCNC2)c2c(F)cccc21 [Example 85, (S)-4-Fluoro-1-(2-fluoro-phenyl)-3-(piperidin-3-ylmethoxy)-1H-indazole hydrochloride] | 12.5 | 1010
5 | CC1(COc2nn(-c3ccccc3F)c3ccccc23)CCCNC1 (centres unmarked) [Example 53, 1-(2-Fluoro-phenyl)-3-(3-methyl-piperidin-3-ylmethoxy)-1H-indazole hydrogen chloride] | 54.1 | 146
6 | Fc1ccc(F)c(-n2nc(OC[C@@H]3CNCCO3)c3ccccc32)c1 [Example 28, (S)-(+)-1-(2,5-Difluorophenyl)-3-(morpholin-2-ylmethoxy)-1H-indazole maleate] | 5.1 | 640
7 | Fc1ccc2c(c1)c(OC[C@@H]1CCCNC1)nn2-c1ccccc1F [Example 55, (R)-5-Fluoro-1-(2-fluoro-phenyl)-3-(piperidin-3-ylmethoxy)-1H-indazole maleate] | 71.2 | 126
8 | c1ccc(-n2nc(OC3CCCNC3)c3ccccc32)cc1 (racemic) [Example 15, (±)-1-Phenyl-3-(piperidin-3-yloxy)-1H-indazole hydrochloride] | 329 | 1460
9 | Fc1cccc(-n2nc(OC[C@H]3CCCNC3)c3c(F)cccc32)c1 [Example 82, (S)-4-Fluoro-1-(3-fluoro-phenyl)-3-(piperidin-3-ylmethoxy)-1H-indazole hydrochloride] | 23.2 | 635
10 | Fc1ccccc1-n1nc(OC[C@H]2CNCCO2)c2ccccc21 [Example 5, (R)-(−)-1-(2-Fluorophenyl)-3-(morpholin-2-ylmethoxy)-1H-indazole hydrochloride] | 84 | 1610
11 | Fc1ccccc1-n1nc(OC[C@@H]2CNCCO2)c2c(F)cccc21 [Example 98, (S)-(+)-4-Fluoro-1-(2-fluorophenyl)-3-(morpholin-2-ylmethoxy)-1H-indazole maleate] | 27.3 | 3860
12 | Fc1ccc(-n2nc(OC[C@@H]3CNCCO3)c3ccccc32)cc1F [Example 23, (S)-1-(3,4-Difluoro-phenyl)-3-(morpholin-2-ylmethoxy)-1H-indazole hydrochloride] | 11.5 | 1530
13 | Fc1ccccc1-n1nc(O[C@H]2CCCN2)c2ccccc21 [Example 12, (S)-(−)-1-(2-Fluorophenyl)-3-(pyrrolidin-2-yloxy)-1H-indazole hydrochloride] | 12.5 | 1010
14 | Fc1ccccc1-n1nc(OC2CCNCC2)c2cc(Cl)ccc21 [Example 102, 5-Chloro-1-(2-fluoro-phenyl)-3-(piperidin-4-yloxy)-1H-indazole hydrochloride] | 71.5 | 129
15 | CC1(COc2nn(-c3ccccc3F)c3ccc(F)cc23)CCNCC1 [Example 54, 5-Fluoro-1-(2-fluoro-phenyl)-3-(4-methyl-piperdin-4-ylmethoxy)-1H-indazole hydrogen chloride] | 274 | 28.5
16 | Fc1cccc(F)c1-n1nc(OC[C@H]2CCCNC2)c2ccccc21 [Example 25, (S)-1-(2,6-Difluoro-phenyl)-3-(piperidin-3-ylmethoxy)-1H-indazole maleate] | 3.2 | 670
